Article PMC4289246, “Dose-dependent effects of lesogaberan on reflux measures in patients with refractory gastroesophageal reflux disease: a randomized, placebo-controlled study” (BMC Gastroenterology, 2014)
Where two headings read alike, the source gives them in different places.

Experiments:
[1] = Plasma pharmacokinetics of lesogaberan during 24-h dosing; type: in vivo, human; details: for AUC(0-t) / Cmax / Tmax: human, oral, plasma; for AUC(0-t): modified-release capsules, read-out: AUC (0–24 h), geometric mean
Procedure: Blood samples were taken 1 h before the first administration of each dose, and at regular intervals during the 24-h period after the first administration of each dose, to assess the concentration of lesogaberan in plasma over time. […]

[2] = system: patients with GERD who had a partial response to PPI treatment; experiment: 24-h impedance–pH measurement of reflux variables, crossover vs placebo; type: in vivo, human; details: for Difference in geometric mean, number of reflux episodes in supine position / Difference in geometric mean, number of reflux episodes in upright position / Difference in geometric mean, number of weakly acid reflux episodes / Difference in geometric mean, number of acid reflux episodes / Difference in geometric mean, number of mixed gas/liquid reflux episodes / Difference in geometric mean, number of pure liquid reflux episodes / Difference in geometric mean, proportion of time with esophageal pH < 4 / Difference in geometric mean, proportion of time with intragastric pH < 4 / Difference in geometric mean, proximal extent of reflux (cm) / Difference in geometric mean, total number of reflux episodes: relative to placebo; for Difference in geometric mean, number of weakly acid reflux episodes: pH 4.0–6.5; for Difference in geometric mean, number of weakly acid reflux episodes / Difference in geometric mean, number of acid reflux episodes / Difference in geometric mean, number of mixed gas/liquid reflux episodes / Difference in geometric mean, number of pure liquid reflux episodes / Difference in geometric mean, proportion of time with esophageal pH < 4 / Difference in geometric mean, proportion of time with intragastric pH < 4 / Difference in geometric mean, proximal extent of reflux (cm) / Difference in geometric mean, total number of reflux episodes: upright or supine; for Difference in geometric mean, number of acid reflux episodes: pH < 4
Procedure: This was a randomized, double-blind, placebo-controlled, four-way crossover, phase 2a study. Patients were randomized to receive one of 10 treatment sequences each consisting of placebo and three of the four different lesogaberan doses (30, 90, 120 and 240 mg). These were given on different days, each separated by a 7–28-day washout period. […] Each dose was given twice over a 24-h period in the form of modified-release capsules: one taken 1 h before breakfast after fasting the night before, and the other taken 1 h before dinner. (Note that patients fasted overnight before each study period: no food after 22:00 and no fluids after 24:00.) Treatment with patients’ usual, regular and optimized dose of PPI was continued throughout the study.
Impedance–pH measurements were taken for 24 h after the first administration of each dose using a Sleuth® multichannel intraluminal impedance ambulatory system (Sandhill Scientific, Inc., Highlands Ranch, CO, USA). This device includes a data logger, impedance–pH amplifiers, and a catheter consisting of two antimony pH sensors (calibrated before and after recordings were taken using standard pH 7 and pH 1 buffers) placed 5 cm above and 10 cm below the lower esophageal sphincter (LES) and eight impedance electrodes placed 2, 4, 6, 8, 10, 14, 16 and 18 cm above the LES. The electrodes are paired to measure impedance at 3, 5, 7, 9, 15 and 17 cm above the LES. The position of the LES was located by a manometric recording before the study medication or placebo was given.
Impedance–pH readings were analysed by one investigator (JP) using dedicated software (BioVIEW Analysis®, version 5.5.4; Sandhill Scientific Inc.) and were then checked manually. This was performed in a blinded manner and the results were used to determine the number of reflux episodes, defined as a period when impedance decreased to less than 50% of baseline (liquid episode) or increased to more than 150% of baseline (gas episode), propagating […] from the most distal channel. Acid, weakly acid and non-acid reflux episodes were defined as episodes lasting longer than 5 s with a pH of < 4, 4.0–6.5 and > 6.5, respectively. The decision to use a cautious cut-off pH of 6.5 was taken in order to ensure that no measurements near to a pH of 7 would be erroneously categorized as weakly acidic. These definitions have previously been employed for studies of this type. During the 24-h period of ambulatory impedance–pH measurement, patients used a data logger and a diary card to record their meal intake and periods in supine position, as well as any GERD symptoms.
The effect of each dose of lesogaberan was measured as the proportional difference, relative to placebo, in the geometric mean of the reflux variables assessed over 24 h. The analysis was based on a mixed-effect model with treatment, period and sequence as fixed effects and patient as a random effect. Geometric means and relative differences in geometric means were reported with 95% CIs. A p value of < 0.05 was considered to indicate statistical significance and no corrections for multiple testing were performed. Multiplicity was accounted for by using a step-down sequential procedure comparing lesogaberan doses with placebo, starting at a 240 mg dose and, in the event of rejection of the null hypothesis, comparison of descending doses.

[3] = system: patients with GERD who have a partial response to PPI therapy; parameters: method as in PMID 20451523; details: 65 mg twice daily, partial responders to PPI therapy; cited from earlier work
[4] = parameters: method as in PMID 21410297; details: approximately; cited from earlier work
[5] = system: partial responders to PPI treatment; parameters: method as in earlier work; details: cited from earlier work
[6] = 30 mg twice in 24 h, add-on to PPI
[7] = 90 mg twice in 24 h, add-on to PPI
[8] = 120 mg twice in 24 h, add-on to PPI
[9] = 240 mg twice in 24 h, add-on to PPI

## NC[C@@H](F)C[PH](=O)O [lesogaberan, (R)-(3-amino-2-fluoropropyl) phosphinic acid]
[1]; 7–28-day washout, estimated from half-life
  fraction of peak concentration (Cmax) remaining at the end of the wash-out period: ≤ 0.01%
[1]; 30 mg twice in 24 h, patients
  AUC(0-t): 5.25 µM·h
[1]; 90 mg twice in 24 h, patients
  AUC(0-t): 17.3 µM·h
[1]; 120 mg twice in 24 h, patients
  AUC(0-t): 22.2 µM·h
[1]; 240 mg twice in 24 h, patients
  AUC(0-t): 46.9 µM·h
[1]; 30 mg, evening dose, patients, read-out: C max evening, geometric mean
  Cmax: 420 nM
[1]; 30 mg, evening dose, patients, read-out: t max evening, geometric mean
  Tmax: 2.2 h
[1]; 30 mg, morning dose, patients, read-out: C max morning, geometric mean
  Cmax: 350 nM
[1]; 30 mg, morning dose, patients, read-out: t max morning, geometric mean
  Tmax: 1.7 h
[1]; 90 mg, evening dose, patients, read-out: C max evening, geometric mean
  Cmax: 1680 nM
[1]; 90 mg, evening dose, patients, read-out: t max evening, geometric mean
  Tmax: 1.9 h
[1]; 90 mg, morning dose, patients, read-out: C max morning, geometric mean
  Cmax: 1300 nM
[1]; 90 mg, morning dose, patients, read-out: t max morning, geometric mean
  Tmax: 1.7 h
[1]; 120 mg, evening dose, patients, read-out: C max evening, geometric mean
  Cmax: 2210 nM
[1]; 120 mg, evening dose, patients, read-out: t max evening, geometric mean
  Tmax: 1.9 h
[1]; 120 mg, morning dose, patients, read-out: C max morning, geometric mean
  Cmax: 1480 nM
[1]; 120 mg, morning dose, patients, read-out: t max morning, geometric mean
  Tmax: 1.9 h
[1]; 240 mg, all four doses (30, 90, 120, 240 mg), morning and evening, read-out: geometric mean tmax
  Tmax: 1.7 to 2.6 h
[1]; 240 mg, evening dose, patients, read-out: C max evening, geometric mean
  Cmax: 4180 nM
[1]; 240 mg, evening dose, patients, read-out: t max evening, geometric mean
  Tmax: 2.6 h
[1]; 240 mg, morning dose, patients, read-out: C max morning, geometric mean
  Cmax: 3310 nM
[1]; 240 mg, morning dose, patients, read-out: t max morning, geometric mean
  Tmax: 1.7 h
[2]; [6]
  Difference in geometric mean, number of reflux episodes in supine position: -37.3%
  Difference in geometric mean, number of reflux episodes in upright position: -25.2%
  Difference in geometric mean, number of weakly acid reflux episodes: -28.3%
  Difference in geometric mean, number of acid reflux episodes: -34.7%
  Difference in geometric mean, number of mixed gas/liquid reflux episodes: -25.0%
  Difference in geometric mean, number of pure liquid reflux episodes: -27.9%
  Difference in geometric mean, proportion of time with esophageal pH < 4: -69.8%
  Difference in geometric mean, proportion of time with intragastric pH < 4: +40.4%
  Difference in geometric mean, proximal extent of reflux (cm): -39.1%
  Difference in geometric mean, total number of reflux episodes: -26.2%
[2]; [7]
  reduction in the mean number of pure liquid reflux episodes relative to placebo: 53.0%
  reduction in the mean number of total reflux episodes relative to placebo: approximately 37%
  Difference in geometric mean, number of reflux episodes in supine position: -12.3%
  Difference in geometric mean, number of reflux episodes in upright position: -38.4%
  Difference in geometric mean, number of weakly acid reflux episodes: -31.4%
  Difference in geometric mean, number of acid reflux episodes: -45.5%
  Difference in geometric mean, number of mixed gas/liquid reflux episodes: -28.3%
  Difference in geometric mean, number of pure liquid reflux episodes: -53.0%
  Difference in geometric mean, proportion of time with esophageal pH < 4: -56.1%
  Difference in geometric mean, proportion of time with intragastric pH < 4: +23.7%
  Difference in geometric mean, proximal extent of reflux (cm): -58.9%
  Difference in geometric mean, total number of reflux episodes: -37.0%
[2]; [8]
  reduction in the mean number of pure liquid reflux episodes relative to placebo: 44.1%
  Difference in geometric mean, number of reflux episodes in supine position: -31.2%
  Difference in geometric mean, number of reflux episodes in upright position: -46.1%
  Difference in geometric mean, number of weakly acid reflux episodes: -44.5%
  Difference in geometric mean, number of acid reflux episodes: -57.9%
  Difference in geometric mean, number of mixed gas/liquid reflux episodes: -42.5%
  Difference in geometric mean, number of pure liquid reflux episodes: -44.1%
  Difference in geometric mean, proportion of time with esophageal pH < 4: -65.7%
  Difference in geometric mean, proportion of time with intragastric pH < 4: +3.6%
  Difference in geometric mean, proximal extent of reflux (cm): -66.3%
  Difference in geometric mean, total number of reflux episodes: -45.0%
[2]; [9]
  reduction in the mean number of pure liquid reflux episodes relative to placebo: 51.9%
  Difference in geometric mean, number of reflux episodes in supine position: -69.1%
  Difference in geometric mean, number of reflux episodes in upright position: -50.7%
  Difference in geometric mean, number of weakly acid reflux episodes: -45.1%
  Difference in geometric mean, number of acid reflux episodes: -57.1%
  Difference in geometric mean, number of mixed gas/liquid reflux episodes: -56.7%
  Difference in geometric mean, number of pure liquid reflux episodes: -51.9%
  Difference in geometric mean, proportion of time with esophageal pH < 4: -73.0%
  Difference in geometric mean, proportion of time with intragastric pH < 4: +27.7%
  Difference in geometric mean, proximal extent of reflux (cm): -63.3%
  Difference in geometric mean, total number of reflux episodes: -52.8%
[2]; 30, 90, 120, 240 mg twice in 24 h, data not shown
  effect on mean number of pure gas reflux episodes relative to placebo: No significant effect
[2]; 30, 90, 120, 240 mg twice in 24 h, pH > 6.5, data not shown
  effect on mean number of non-acid reflux episodes relative to placebo: No significant effect
[2]; highest dose (240 mg) twice in 24 h, add-on to PPI
  reduction relative to placebo in the mean number of reflux episodes, supine position: 69.1%
[3]
  reduction in the mean number of total reflux episodes relative to placebo: approximately 35%
[4]
  pharmacological half-life: 11–13 h
[5]; 240 mg, phase 2b, partial responders to PPI treatment
  effect on GERD symptoms: does not have a clinically important effect on GERD symptoms
[5]; phase 2b study
  patients with reversible elevated alanine transaminase levels >5 times the upper limit of normal: 6 patients
